Measured values from the PolyMetriX glass transition set.
± gives the standard deviation of the reports.

glass transition temperature [°C]	Compound
81.00	*CCCCCCCCOC(=O)Nc1ccc(NC(=O)OCCCCCCCCOc2ccc(-c3ccc(O*)cc3)cc2)c(C)c1 (repeat unit)
240.00	*c1ccc(Oc2ccc(N3C(=O)c4ccc(Oc5cccc6c(Oc7ccc8c(c7)C(=O)N(*)C8=O)cccc56)cc4C3=O)cc2)cc1 (repeat unit)
250.00	*C(=O)Nc1ccc(C(c2ccc(NC(=O)c3ccc4c(c3)C(=O)N(c3cccc5c(N6C(=O)c7ccc(*)cc7C6=O)cccc35)C4=O)cc2)(C(F)(F)F)C(F)(F)F)cc1 (repeat unit)
188.00	*CCCC(=O)Nc1ccc(Oc2cccc(NC(=O)CCCN3C(=O)c4ccc(C(=O)c5ccc6c(c5)C(=O)N(*)C6=O)cc4C3=O)c2)cc1 (repeat unit)
101.00	*CCCCCCCCCCCCN1C(=O)c2ccc(C(c3ccc4c(c3)C(=O)N(*)C4=O)(C(F)(F)F)C(F)(F)F)cc2C1=O (repeat unit)
20.00	*O[Si](*)(C)CCCCCCCCCCCOc1ccc(-c2ccc(C(=O)Oc3ccc(C(=O)OC(C)C(=O)OC(C)C(=O)OCC(C)CC)cc3)cc2)cc1 (repeat unit)
59.00	*CC(*)(C)C(=O)OCCCCCCCCCCCOc1ccc(/N=N/c2ccc(OC(=O)c3ccc4c(c3)OCCOCCOCCOCCO4)cc2)cc1 (repeat unit)
156.00	*C(=O)N1C(=O)N(C(=O)c2ccc3c(c2)C(=O)N(c2ccc(Oc4ccc(N5C(=O)c6ccc(*)cc6C5=O)cc4)cc2)C3=O)C(C)(C)C1=O (repeat unit)
216.00	*c1ccc(Oc2cc3ccccc3cc2Oc2ccc(N3C(=O)c4ccc(Oc5ccccc5Oc5ccc6c(c5)C(=O)N(*)C6=O)cc4C3=O)cc2)cc1 (repeat unit)
327.00 ± 18	*c1ccc2c(c1)C(=O)N(c1ccc(-c3ccc(N4C(=O)c5ccc(C(*)(C(F)(F)F)C(F)(F)F)cc5C4=O)cc3C(F)(F)F)c(C(F)(F)F)c1)C2=O (repeat unit)
88.00	*CC(*)(C)C(=O)OCCCCOc1ccc2cc(C(=O)Oc3ccccc3)ccc2c1 (repeat unit)
285.2 ± 2.5	*c1cccc(Oc2cccc(-n3c(=O)c4cc5c(=O)n(*)c(=O)c5cc4c3=O)c2)c1 (repeat unit)
250.00	*CC(=O)Nc1ccc(NC(=O)CN2C(=O)c3ccc(C(=O)c4ccc5c(c4)C(=O)N(*)C5=O)cc3C2=O)cc1 (repeat unit)
0.00	*CCCCCCCCCCCCOc1ccc(CCc2ccc(O*)cc2C)cc1 (repeat unit)
116.00	*c1cccc(OCCCCCCCCCCCCOc2cccc(N3C(=O)c4ccc(-c5cccc6c5C(=O)N(*)C6=O)cc4C3=O)c2)c1 (repeat unit)
103.40	*O[Si](*)(C)CCCCCCCCCCC(=O)Oc1ccc(-c2ccc(OC(=O)c3ccc(OCC)cc3)cc2)cc1 (repeat unit)
287.00	*c1c(C)cc(C)c(N2C(=O)c3cccc(Oc4c(C)cc(Cc5cc(C)c(Oc6cccc7c6C(=O)N(*)C7=O)c(C)c5)cc4C)c3C2=O)c1C (repeat unit)
116.00	*CCCCCCOc1ccc(/C=C2\CCC/C(=C\c3ccc(O*)cc3)C2=O)cc1 (repeat unit)
302.00	*c1ccc(Oc2ccc(NC(=O)c3ccc4c(c3)C(=O)N(c3ccc(Cc5ccc(N6C(=O)c7ccc(C(=O)Nc8ccc(Oc9ccc(C%10(*)NC(=O)c%11ccccc%11%10)cc9)cc8)cc7C6=O)cc5)cc3)C4=O)cc2)cc1 (repeat unit)
262.00	*c1ccc(Oc2ccc(NC(=O)c3ccc(Oc4ccc5c(c4)C(=O)N(*)C5=O)cc3)cc2)cc1 (repeat unit)
116.00	*CCCCCCCCCCOc1ccc(-c2cc(-c3ccccc3)c(-c3ccc(NC(=O)c4ccc(C(=O)Nc5ccc(-c6c(-c7ccccc7)cc(-c7ccc(O*)cc7)cc6-c6ccccc6)cc5)cc4)cc3)c(-c3ccccc3)c2)cc1 (repeat unit)
166.00	*C(=O)Oc1ccc(C(C)(C)c2ccc(OC(=O)c3ccc4c(c3)C(=O)N(c3ccc(-c5ccc(N6C(=O)c7ccc(*)cc7C6=O)cc5C)c(C)c3)C4=O)cc2)cc1 (repeat unit)

Second part, the compound before the results:

Compound	glass transition temperature [°C]
*CC(*)(C)C(=O)OCC(=O)Nc1cc(C)on1 (repeat unit)	128.00
*CCOC(=O)C1CCC(C(=O)OCCOc2ccc(C3(c4ccc(O*)cc4)c4ccccc4-c4ccccc43)cc2)CC1 (repeat unit)	120.1
*CCCCCC(Cl)C(*)Cl (repeat unit)	-17.00
*CC(*)c1ccc(C(C)=O)cc1 (repeat unit)	115.50
*Oc1ccc(NC(=O)c2ccc(C(=O)Nc3ccc(*)cc3)cc2)cc1 (repeat unit)	240.50
*CC(*)c1ccc2c(c1)OCO2 (repeat unit)	138.00
*Sc1ccc(*)cc1 (repeat unit) [Poly[thio(p-phenylene)] ]	87 ± 2.2
*Cc1ccccc1[Si](*)(c1ccccc1)c1ccccc1 (repeat unit)	122.00
*Oc1ccc(C(c2ccccc2)(c2ccccc2)c2ccc(OC(=O)c3cccc(C(*)=O)c3)cc2)cc1 (repeat unit)	229.00
*C(C(=O)OC)C(*)C(=O)OC(C)(C)C (repeat unit)	84.00
*CC(*)(C)C(=O)OCCN(C)c1ccc(/N=N/c2ccc(/N=N/c3ccc(C#N)cc3)cc2C)cc1 (repeat unit)	120.00
*Oc1ccc(C(C)(C)c2ccc(Oc3ccc(C(=O)c4ccc(-c5ccc(C(=O)c6ccc(*)cc6)cc5)cc4)cc3)cc2)cc1 (repeat unit)	186.00
*c1ccc(Oc2ccc(S(=O)(=O)c3ccc(Oc4ccc(N5C(=O)C6CCC(C7CCC8C(=O)N(*)C(=O)C8C7)CC6C5=O)cc4)cc3)cc2)cc1 (repeat unit)	256.50
*CC(*)c1ccccc1C(=O)OCC(C)C (repeat unit)	127.00
*C[Si](*)(CCCC)CCCC (repeat unit)	-30.00
*c1cc(SCCCCCC)c(*)s1 (repeat unit)	32.00
*C(=O)c1ccc2c(c1)C(=O)N(c1cccc(P(=O)(c3ccc(Oc4ccc(C56CC7CC(CC(C7)C5)C6)cc4)cc3)c3cccc(N4C(=O)c5ccc(*)cc5C4=O)c3)c1)C2=O (repeat unit)	305.00
*CC(*)C(=O)OCC(F)(F)F (repeat unit)	3.10
*c1ccc2c(c1)C(CC(CC)CCCC)(CC(CC)CCCC)c1cc(*)ccc1-2 (repeat unit)	44.00 ± 21
*CC(COc1ccc(C(C)(C)c2ccc(O*)cc2)cc1)OC(=O)/C=C/c1ccccc1 (repeat unit)	100.60
*Nc1ccc(C(=O)c2ccc(C(=O)c3ccc(Nc4ccc5c(c4)c4cc(*)ccc4n5CC(CC)CCCC)cc3)cc2)cc1 (repeat unit)	213.00
*c1ccc(-c2ccc(N(c3ccccc3)c3ccc(-c4ccc(N(c5ccccc5)c5ccc(-c6ccc(-n7c(=O)c8cc9c(=O)n(*)c(=O)c9cc8c7=O)cc6)cc5)cc4)cc3)cc2)cc1 (repeat unit)	220.00

Compound	glass transition temperature [°C]
*Nc1ccc(-c2ccc(NC(=O)c3cccc(C(*)=O)c3)c(O)c2)cc1O (repeat unit)	386.00
*c1ccc(Oc2ccc(C(=O)c3ccc(Oc4ccc(-c5nnc(*)c6c(-c7ccccc7)c(-c7ccc8ccccc8c7)c(-c7ccc8ccccc8c7)c(-c7ccccc7)c56)cc4)cc3)cc2)cc1 (repeat unit)	312.00
*Oc1ccc(C(C)(C)c2cccc(C(C)(C)c3ccc(Oc4ccc(C(=O)Nc5ccc(NC(=O)c6ccc(*)cc6)cc5)cc4)cc3)c2)cc1 (repeat unit)	154.00
*CC(*)(C)C(=O)Oc1ccc(/N=N/c2ccc(C#N)cc2)cc1 (repeat unit)	185.00
*/C=C/CCCCCCCCCC(Cl)CCCCCCCCC* (repeat unit)	-37.00
*Oc1ccc(P(C)(=O)c2ccc(*)cc2)cc1 (repeat unit)	238.00
*c1ccc(N2C(=O)CC(C3C=C(C)C4C(=O)N(*)C(=O)C4C3)C2=O)cc1 (repeat unit)	327.00
*CC(*)c1ccc(COCCCCCC)cc1 (repeat unit)	-20.00
*c1ccc(Oc2ccc(Oc3ccc(-c4nnc(*)c5c(-c6ccc(F)cc6)c(-c6ccc(F)cc6)c(-c6ccc(F)cc6)c(-c6ccc(F)cc6)c45)cc3)cc2)cc1 (repeat unit)	309.00
*CCCCCOc1ccc(CCc2ccc(O*)cc2C)cc1 (repeat unit)	15.40
*C(=O)c1ccc2c(c1)C(=O)N(c1ccc(CP(=O)(OCCCl)OCCCl)c(N3C(=O)c4ccc(*)cc4C3=O)c1)C2=O (repeat unit)	261.00
*CC(*)(CC(=O)OCCCCCCCCC)C(=O)OCCCCCCCCC (repeat unit)	-13.00
*CCCCCCCCCCOC(=O)NNC(=O)CCCCCCCCC(=O)NNC(=O)O* (repeat unit)	34.00
*O[Si](C)(Oc1ccc(C(C)(C)c2ccc(*)cc2)cc1)c1ccccc1 (repeat unit)	58.00
*CC(*)(C)C(=O)OCc1ccc(/C=C/C(=O)Oc2ccc3oc(=O)ccc3c2)cc1 (repeat unit)	140.00
*CC(*)(C)OC (repeat unit)	67.00
*O[Si](C)(C)O[Si](C)(C)O[Si](*)(C)c1c(F)c(F)c(F)c(F)c1F (repeat unit)	-83.00
*c1ccc(Sc2ccc(S(*)(=O)=O)cc2)cc1 (repeat unit)	215.00
*CC(*)OCCOc1ccc(/N=N/c2ccc([N+](=O)[O-])cc2)cc1 (repeat unit)	54.00
*C1C(=O)N(C(C)CC)C(=O)C1* (repeat unit)	205.00
*CC(C)(C)CS(=O)(=O)CC(C)(C)COC(=O)Nc1ccc(Cc2ccc(NC(=O)O*)cc2)cc1 (repeat unit)	90.00
